According to patent publication US20240181068A1, “SELECTIVE NEUTRAL PH INHIBITOR OF CATHEPSIN B” (The Regents of the University of California, priority 2021, published 2024):
“Also recorded” adds a separate entry of the source.

Tests used:
Type in all cases: biochemical
cathepsin C = molecular target: T1, cathepsin C (Homo sapiens, UniProt P53634); test: Specificity of inhibitors: cathepsin C (Gly-Arg-AMC substrate)
T1 construct: purchased R&D Systems 1071-CY-010
Procedure: (§1) Specificity of inhibitors for other cysteine cathepsin proteases. The effects of Z-Arg-Lys-AOMK and Z-Glu-Lys-AOMK on cathepsin V, L, K, S, X, H and C activities were assessed. IC50 values were calculated at pH 4.6 and pH 7.2 conditions, consisting of 40 mM citrate phosphate, 1 mM EDTA, 100 mM NaCl, and 5 mM DTT. The inhibitor concentrations ranged from 16.38 μM to 256 nM with 2-fold serial dilutions. […] Cathepsin V (0.04 ng/μL), cathepsin L (0.03 ng/μL), cathepsin K (0.10 ng/μL), cathepsin S (0.20 ng/uL) were assayed with 40 μM Z-Phe-Arg-AMC. Cathepsin X (0.20 ng/uL), cathepsin C (0.51 ng/uL) and cathepsin H (0.1 ng/μL) were assayed with 40 μM of MCA-Arg-Pro-Pro-Gly-Phe-Ser-Ala-Phe-Lys(Dnp)OH (SEQ ID NO: 2), Gly-Arg-AMC, and Arg-AMC, respectively. Activation of pro-cathepsin H to cathepsin H was conducted by incubation of cathepsin H (4.4 ng/μL) with cathepsin L (1.1 ng/μL) at RT for 2 hrs in activation buffer (20 mM citrate phosphate pH 6.0, 100 mM NaCl, and 5 mM DTT). Cathepsin C (13.78 ng/μL) was activated by incubation with cathepsin L (3.4 ng/μL) at RT for one hr in activation buffer (20 mM citrate phosphate, pH 6.0, 100 mM NaCl, 5 mM DTT). […] For all assays containing peptide-AMC substrates the fluorescent microplate reader settings were the same as outlined above for cathepsin B. For the cathepsin X assay, the plate reader was set to excitation 320 nm, emission 400 nm, gain 105, top optics and read height 1 mm. To convert RFU/s to picomol/min, 10 μM to 0.005 μM (2-fold serial dilution) of MCA-Arg-Pro-Pro-Gly-Phe-Ser-Ala-Phe-Lys(Dnp)OH (SEQ ID NO: 2) was fully hydrolyzed with excess cathepsin X and a standard curve was generated using the total fluorescence values calculated at each concentration.

cathepsin H = molecular target: T2, cathepsin H (Homo sapiens, UniProt P09668); test: Specificity of inhibitors: cathepsin H (Arg-AMC substrate)
T2 construct: purchased R&D Systems 75116-CY-010
Procedure: as §1

cathepsin S = molecular target: T3, cathepsin S (Homo sapiens, UniProt P25774); test: Specificity of inhibitors: cathepsin S (Z-Phe-Arg-AMC substrate)
T3 construct: purchased R&D Systems 1183-CY-010
Procedure: as §1

cathepsin V = molecular target: T4, cathepsin V (Homo sapiens, UniProt O60911); test: Specificity of inhibitors: cathepsin V (Z-Phe-Arg-AMC substrate)
T4 construct: purchased R&D Systems 1080-CY-010
Procedure: as §1

cathepsin X = cathepsin X (Homo sapiens, UniProt Q9UBR2); test: Specificity of inhibitors: cathepsin X (MCA peptide substrate)
Procedure: as §1

cathepsin B = molecular target: T5, cathepsin B (Homo sapiens, UniProt P07858); test: Inhibition of peptide library cleavages characterized by MSP-MS; conditions: 64 nM inhibitor
T5 construct: purchased R&D Systems 953-CY-010
Procedure: Cathepsin B cleavage site analysis by multiplex substrate profiling by mass spectrometry (MSP-MS). Cathepsin B activity (activated) was titrated with E64c to calculate the concentration of active cathepsin B. For MSP-MS assays, cathepsin B (0.1 ng/μL, activated) was incubated with a peptide library of 228 14-mer peptides, each at 0.5 μM peptide, in buffer consisting of 50 mM citrate phosphate of pH 7.2 or pH 4.6, 1 mM EDTA, 100 mM NaCl and 4 mM DTT (total volume of 46 μL). After incubation for […] at 25° C., 20 μL aliquots were removed and combined with 80 μL of 8 M urea. An inactivated cathepsin B control consisted of cathepsin B in assay buffer combined with 8 M urea for 60 minutes at 25° C. for denaturation, followed by addition of the peptide library. After incubation, samples were acidified by addition of 40 μL of 2% FA, desalted using C18 LTS Tips (Rainin), evaporated to dryness in a vacuum centrifuge, and stored at −70° C. Samples were resuspended in 20 μL of 0.1% FA (solvent A) and 1 μL was used for LC-MS/MS analysis. All MSP-MS conditions were conducted in quadruplicate assays.
Inhibitor inhibition of peptide cleavages characterized by MSP-MS. […]

T2 sequence (P09668 116-335 limits assumed, other chains not shown): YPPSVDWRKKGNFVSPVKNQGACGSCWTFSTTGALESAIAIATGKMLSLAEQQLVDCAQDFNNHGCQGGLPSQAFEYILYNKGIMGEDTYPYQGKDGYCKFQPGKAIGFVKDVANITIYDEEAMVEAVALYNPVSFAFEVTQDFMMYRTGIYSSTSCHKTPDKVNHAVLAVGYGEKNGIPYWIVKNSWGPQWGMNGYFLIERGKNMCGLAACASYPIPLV
T4 sequence (O60911 114-334): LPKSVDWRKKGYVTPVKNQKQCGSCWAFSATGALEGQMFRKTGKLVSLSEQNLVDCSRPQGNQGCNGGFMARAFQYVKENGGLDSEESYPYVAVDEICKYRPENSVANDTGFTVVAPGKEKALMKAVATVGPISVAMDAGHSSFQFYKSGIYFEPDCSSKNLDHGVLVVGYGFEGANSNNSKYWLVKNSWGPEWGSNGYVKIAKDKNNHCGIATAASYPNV
T3 sequence (P25774 115-331): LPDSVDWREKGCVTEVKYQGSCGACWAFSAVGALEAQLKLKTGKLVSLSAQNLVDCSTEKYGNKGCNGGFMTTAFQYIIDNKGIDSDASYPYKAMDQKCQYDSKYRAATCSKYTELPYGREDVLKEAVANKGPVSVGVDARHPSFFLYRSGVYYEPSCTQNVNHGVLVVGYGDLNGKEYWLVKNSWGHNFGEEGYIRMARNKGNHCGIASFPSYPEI
Sequence of cathepsin X (Q9UBR2 62-303): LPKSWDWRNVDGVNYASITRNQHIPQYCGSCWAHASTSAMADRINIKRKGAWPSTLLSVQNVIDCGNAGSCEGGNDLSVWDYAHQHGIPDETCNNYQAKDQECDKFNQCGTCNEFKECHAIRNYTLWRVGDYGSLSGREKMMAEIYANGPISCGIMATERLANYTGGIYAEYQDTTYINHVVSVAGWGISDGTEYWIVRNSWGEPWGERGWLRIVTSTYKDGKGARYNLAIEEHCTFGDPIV
T1 sequence (P53634 25-134 limits assumed): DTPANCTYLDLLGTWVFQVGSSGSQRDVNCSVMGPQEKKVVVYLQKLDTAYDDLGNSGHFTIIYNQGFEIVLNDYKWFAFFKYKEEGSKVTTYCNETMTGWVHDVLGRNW
T1 sequence (P53634 231-394 limits assumed): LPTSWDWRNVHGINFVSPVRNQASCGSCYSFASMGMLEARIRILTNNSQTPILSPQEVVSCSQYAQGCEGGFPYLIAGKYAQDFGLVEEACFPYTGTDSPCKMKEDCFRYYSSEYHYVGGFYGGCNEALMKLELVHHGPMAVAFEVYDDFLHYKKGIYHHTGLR
T1 sequence (P53634 395-463 limits assumed): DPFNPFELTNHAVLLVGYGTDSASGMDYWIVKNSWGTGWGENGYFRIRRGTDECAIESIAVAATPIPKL

SMILES: Cc1cccc(C)c1C(=O)OCC(=O)C(CCCCN)NC(=O)C(CCCNC(=N)N)NC(=O)OCc1ccccc1 (stereo not drawn) [Z-Arg-Lys-AOMK]
- IC50 (cathepsin C; cathepsin C, pH 4.6): > 16 µM
- inhibition at 16 µM (cathepsin C; cathepsin C, pH 4.6, 16,000 nM inhibitor): 6%
- IC50 (cathepsin C; cathepsin C, pH 7.2): 0.85 µM
- inhibition of cathepsin C (cathepsin C; pH 4.6, inhibitor at 16 μM): minimal inhibition
- fold more potent for cathepsin B than cathepsin C (cathepsin C; pH 7.2, from IC50): 43 fold
- IC50 (cathepsin H; cathepsin H, pH 4.6): > 16 µM
- IC50 (cathepsin H; cathepsin H, pH 7.2): > 16 µM
- inhibition at 16 µM (cathepsin H; cathepsin H, pH 7.2, 16,000 nM inhibitor): 29%
- inhibition of cathepsin H (cathepsin H; pH 4.6, inhibitor at 16 μM): no inhibition
- inhibition of cathepsin H (cathepsin H; pH 7.2, inhibitor at 16 μM): minimally inhibited
- IC50 (cathepsin S; cathepsin S, pH 4.6): > 16 µM
- inhibition at 16 µM (cathepsin S; cathepsin S, pH 4.6, 16,000 nM inhibitor): 13%
- inhibition of cathepsin S (cathepsin S; pH 4.6, inhibitor at 16 μM): minimal inhibition
- fold more potent for cathepsin B than cathepsin S (cathepsin S; pH 7.2, from IC50): 110 fold
- IC50 (cathepsin V; cathepsin V, pH 4.6): > 16 µM
- inhibition at 16 µM (cathepsin V; cathepsin V, pH 4.6, 16,000 nM inhibitor): 63%
- IC50 (cathepsin V; cathepsin V, pH 7.2): 0.44 µM
- inhibition of cathepsin V (cathepsin V; pH 4.6, inhibitor at 16 μM): minimal inhibition
- fold more potent for cathepsin B than cathepsin V (cathepsin V; pH 7.2, from IC50): 22 fold
- IC50 (cathepsin X; cathepsin X, pH 4.6): > 16 µM
- inhibition at 16 µM (cathepsin X; cathepsin X, pH 4.6, 16,000 nM inhibitor): 21%
- inhibition of cathepsin X (cathepsin X; pH 4.6, inhibitor at 16 μM): minimal inhibition
- inhibition of cathepsin B cleavage of peptide library substrates (cathepsin B; pH 4.6): does not inhibit; also recorded: did not inhibit
- inhibition of cathepsin B cleavage of peptide library substrates (cathepsin B; pH 7.2, 1 hr incubation): inhibits; also recorded: completely inhibited
